Assay results from ChEMBL document CHEMBL4422677, “Prenylated Diresorcinols Inhibit Bacterial Quorum Sensing” (J Nat Prod, 2019).
Calls of active or inactive are those of the source. No cut-off for these calls is given here.

Tests used:
[1] = Inhibition of Staphylococcus aureus USA300 LAC quorum sensing system Agr assessed as reduction in AIP production measured after 5 hrs by UPLC-MS analysis; design: species or system Staphylococcus aureus subsp. aureus USA300
[2] = tested on: Staphylococcus aureus subsp. aureus USA300; assay: Inhibition of Staphylococcus aureus USA300 LAC quorum sensing system Agr assessed as reduction in hla transcription at 2.9 to 16 uM after 5 hrs by RNA protect cell reagent based qRT-PCR analysis
Staphylococcus aureus = assay: Effect on growth of Staphylococcus aureus USA300 LAC measured at 1 hr interval for 5 hrs
[3] = molecular target: T1, Accessory gene regulator protein A (Staphylococcus aureus) (UniProt P0A0I7); assay: Inhibition of Staphylococcus aureus USA300 LAC quorum sensing system AgrA assessed as reduction in RNA3 transcription at 9 to 16 uM after 5 hrs by RNA protect cell reagent based qRT-PCR analysis; conditions: Staphylococcus aureus subsp. aureus USA300
T1 sequence (whole entry): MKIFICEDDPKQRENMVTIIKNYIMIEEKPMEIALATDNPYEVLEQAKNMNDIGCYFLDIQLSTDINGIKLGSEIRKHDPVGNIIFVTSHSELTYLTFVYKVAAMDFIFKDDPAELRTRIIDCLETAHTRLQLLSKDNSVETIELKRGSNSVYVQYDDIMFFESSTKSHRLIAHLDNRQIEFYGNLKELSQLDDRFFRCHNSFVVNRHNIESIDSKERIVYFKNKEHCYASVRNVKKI

[4] = molecular target: T1, Accessory gene regulator protein A (Staphylococcus aureus); assay: Inhibition of Staphylococcus aureus USA300 LAC quorum sensing system AgrA assessed as reduction in psma transcription at 2.9 to 16 uM after 5 hrs by RNA protect cell reagent based qRT-PCR analysis; conditions: Staphylococcus aureus subsp. aureus USA300

Row | SMILES | IC50 [1] [µM] | inhibition [2] | Activity (Staphylococcus aureus) | inhibition [3] | inhibition [4]
1 | CC(C)=CC1c2c(O)cc(C)cc2Oc2cc(C)cc(O)c21 | 6.3 to 12.5 |  |  |  | 
2 | CCCCC/C=C/C1=C(CO)[C@@H](O)[C@H]2O[C@@]2(C/C=C(\C)C(=O)O)C1=O | 1.3 |  |  |  | 
3 | O=C1c2cc(O)cc(O)c2C(=O)c2c(O)cc(CO)cc21 | 6.3 to 12.5 |  |  |  | 
4 | CC(C)=CCc1c(O)cc(C)cc1Oc1cc(C)c(C(=O)O)c(O)c1 | 4.6 |  |  |  | 
5 | CC(C)=C[C@H]1c2c(O)cc(C)cc2Oc2cc(C)c(C(=O)O)c(O)c21 | 0.3 | Active | Non-Toxic | Active | Active
